# Data as given in patent US12714706B2, “Methods of treating small cell lung cancer with lurbinectedin formulations” (PHARMA MAR, S.A., priority 2019, dated 2026).
# Assay: Analytical results and impurity profile of batches of Form A and Form B of lurbinectedin
# Format: physicochemical
# Parameters: Impurity RRT approx. 1.10-1.11 / Impurity RRT approx. 1.12 / Impurity RRT approx. 1.27-1.34 / Impurity RRT approx. 1.29-1.30 / Impurity RRT approx. 1.30-1.32 / Impurity RRT approx. 1.28-1.37 / Impurity RRT approx. 2.37 / Impurity RRT approx. 2.41-2.52 / Impurity RRT approx. 2.85 / Impurity RRT approx. 0.66-0.69 / Impurity RRT approx. 0.72-0.76: unit not given here
# Conditions: for Impurity RRT aprox 0.72-0.76 / Impurity RRT aprox 0.66-0.69 / Impurity RRT aprox 1.10-1.11: batches of Form B
# Description: Several batches of Form A of lurbinectedin were manufactured by this method.
# Several batches of Form B of lurbinectedin were manufactured by this method.
# [1] = impurity profile, batches of Form A
# [2] = batches of Form B of lurbinectedin
# [3] = batches of Form A of lurbinectedin
SMILES,Impurity RRT approx. 0.72-0.76 [1],Impurity RRT approx. 1.10-1.11 [1],Impurity RRT approx. 1.29-1.30 [1],Impurity RRT approx. 1.30-1.32 [1],Residual Solvents Acetonitrile [2],Residual Solvents CH2Cl2 [2],Residual Solvents Methanol [2],Residual Solvents Pentane [2],Residual Solvents Total [2],Total Impurities [2],Water Content [2],Impurity RRT aprox 0.72-0.76 (impurity profile),also measured
COc1ccc2[nH]c3c(c2c1)CCN[C@]31CS[C@@H]2c3c(OC(C)=O)c(C)c4c(c3[C@H](COC1=O)N1[C@@H]2[C@H]2c3c(cc(C)c(OC)c3O)C[C@@H]([C@@H]1O)N2C)OCO4 [Batch M03],0.12,0.11,0.10,0.11,–,–,–,–,–,–,–,–,–
COc1ccc2[nH]c3c(c2c1)CCN[C@]31CS[C@@H]2c3c(OC(C)=O)c(C)c4c(c3[C@H](COC1=O)N1[C@@H]2[C@H]2c3c(cc(C)c(OC)c3O)C[C@@H]([C@@H]1O)N2C)OCO4 [Batch 1711182-2],–,–,–,–,<LOQ,<LOQ,<LOQ,<LOQ,0.0 % w/w,0.3 % Area,2.4 % w/w,0.34 % area,–
COc1ccc2[nH]c3c(c2c1)CCN[C@]31CS[C@@H]2c3c(OC(C)=O)c(C)c4c(c3[C@H](COC1=O)N1[C@@H]2[C@H]2c3c(cc(C)c(OC)c3O)C[C@@H]([C@@H]1O)N2C)OCO4 [Batch M01],0.10,0.08,0.10,0.18,–,–,–,–,–,–,–,–,–
COc1ccc2[nH]c3c(c2c1)CCN[C@]31CS[C@@H]2c3c(OC(C)=O)c(C)c4c(c3[C@H](COC1=O)N1[C@@H]2[C@H]2c3c(cc(C)c(OC)c3O)C[C@@H]([C@@H]1O)N2C)OCO4 [Batch K02],0.09,0.13,0.07,0.19,–,–,–,–,–,–,–,–,–
COc1ccc2[nH]c3c(c2c1)CCN[C@]31CS[C@@H]2c3c(OC(C)=O)c(C)c4c(c3[C@H](COC1=O)N1[C@@H]2[C@H]2c3c(cc(C)c(OC)c3O)C[C@@H]([C@@H]1O)N2C)OCO4 [Batch P02],–,0.09,0.06,0.13,–,–,–,–,–,–,–,–,Impurities Total [3]: 0.4 % Area; Residual Solvents Acetonitrile [3]: <LOQ; Residual Solvents Dichloro-methane [3]: <LOQ; Residual Solvents Ethyl acetate [3]: <LOQ; Residual Solvents Hexane [3]: 0.01 % w/w; Residual Solvents Methanol [3]: 1.7 % w/w; Residual Solvents Pentane [3]: 0.2 % w/w; Residual Solvents Total [3]: 1.9 % w/w; Water Content [3]: 1.2 % w/w
COc1ccc2[nH]c3c(c2c1)CCN[C@]31CS[C@@H]2c3c(OC(C)=O)c(C)c4c(c3[C@H](COC1=O)N1[C@@H]2[C@H]2c3c(cc(C)c(OC)c3O)C[C@@H]([C@@H]1O)N2C)OCO4 [Batch P03],–,–,0.09,–,–,–,–,–,–,–,–,–,Impurities Total [3]: 0.3 % Area; Residual Solvents Acetonitrile [3]: <LOQ; Residual Solvents Dichloro-methane [3]: 0.01 % w/w; Residual Solvents Ethyl acetate [3]: <LOQ; Residual Solvents Hexane [3]: <LOQ; Residual Solvents Methanol [3]: 1.6 % w/w; Residual Solvents Pentane [3]: 0.3 % w/w; Residual Solvents Total [3]: 1.9 % w/w; Water Content [3]: 1.6 % w/w; Impurity RRT approx. 1.12 [1]: 0.07
COc1ccc2[nH]c3c(c2c1)CCN[C@]31CS[C@@H]2c3c(OC(C)=O)c(C)c4c(c3[C@H](COC1=O)N1[C@@H]2[C@H]2c3c(cc(C)c(OC)c3O)C[C@@H]([C@@H]1O)N2C)OCO4 [Batch F02],0.06,0.17,–,0.09,–,–,–,–,–,–,–,–,Impurity RRT approx. 0.66-0.69 [1]: 0.19; Impurity RRT approx. 1.27-1.34 [1]: 0.12; Impurity RRT approx. 2.41-2.52 [1]: 0.07; Impurity RRT approx. 2.85 [1]: 0.07
COc1ccc2[nH]c3c(c2c1)CCN[C@]31CS[C@@H]2c3c(OC(C)=O)c(C)c4c(c3[C@H](COC1=O)N1[C@@H]2[C@H]2c3c(cc(C)c(OC)c3O)C[C@@H]([C@@H]1O)N2C)OCO4 [Batch G01],0.11,0.50,–,0.13,–,–,–,–,–,–,–,–,Impurity RRT approx. 0.66-0.69 [1]: 0.06
COc1ccc2[nH]c3c(c2c1)CCN[C@]31CS[C@@H]2c3c(OC(C)=O)c(C)c4c(c3[C@H](COC1=O)N1[C@@H]2[C@H]2c3c(cc(C)c(OC)c3O)C[C@@H]([C@@H]1O)N2C)OCO4 [Batch R04],–,–,–,–,<LOQ,<LOQ,<LOQ,<LOQ,0.0 % w/w,0.4 % Area,2.6 % w/w,0.26 % area,Impurity RRT aprox 0.66-0.69 (impurity profile): 0.05 % area; Impurity RRT aprox 1.10-1.11 (impurity profile): 0.07 % area
COc1ccc2[nH]c3c(c2c1)CCN[C@]31CS[C@@H]2c3c(OC(C)=O)c(C)c4c(c3[C@H](COC1=O)N1[C@@H]2[C@H]2c3c(cc(C)c(OC)c3O)C[C@@H]([C@@H]1O)N2C)OCO4 [Batch R02],–,–,–,–,<LOQ,<LOQ,–,<LOQ,0.0 % w/w,0.3 % Area,2.0 % w/w,0.28 % area,–
COc1ccc2[nH]c3c(c2c1)CCN[C@]31CS[C@@H]2c3c(OC(C)=O)c(C)c4c(c3[C@H](COC1=O)N1[C@@H]2[C@H]2c3c(cc(C)c(OC)c3O)C[C@@H]([C@@H]1O)N2C)OCO4 [Batch K03],0.07,0.17,0.37,0.08,–,–,–,–,–,–,–,–,–
COc1ccc2[nH]c3c(c2c1)CCN[C@]31CS[C@@H]2c3c(OC(C)=O)c(C)c4c(c3[C@H](COC1=O)N1[C@@H]2[C@H]2c3c(cc(C)c(OC)c3O)C[C@@H]([C@@H]1O)N2C)OCO4 [Batch 1711189-2],–,–,–,–,<LOQ,<LOQ,<LOQ,<LOQ,0.0 % w/w,0.3 % Area,2.5 % w/w,0.30 % area,Impurity RRT aprox 0.66-0.69 (impurity profile): 0.05 % area
COc1ccc2[nH]c3c(c2c1)CCN[C@]31CS[C@@H]2c3c(OC(C)=O)c(C)c4c(c3[C@H](COC1=O)N1[C@@H]2[C@H]2c3c(cc(C)c(OC)c3O)C[C@@H]([C@@H]1O)N2C)OCO4 [Batch 1799069],–,–,–,–,<LOQ,<LOQ,<LOQ,<LOQ,0.0 % w/w,0.4 % Area,2.0 % w/w,0.31 % area,Impurity RRT aprox 1.10-1.11 (impurity profile): 0.06 % area
COc1ccc2[nH]c3c(c2c1)CCN[C@]31CS[C@@H]2c3c(OC(C)=O)c(C)c4c(c3[C@H](COC1=O)N1[C@@H]2[C@H]2c3c(cc(C)c(OC)c3O)C[C@@H]([C@@H]1O)N2C)OCO4 [Batch M02],0.08,0.10,0.17,0.08,–,–,–,–,–,–,–,–,Impurity RRT approx. 1.28-1.37 [1]: 0.08
COc1ccc2[nH]c3c(c2c1)CCN[C@]31CS[C@@H]2c3c(OC(C)=O)c(C)c4c(c3[C@H](COC1=O)N1[C@@H]2[C@H]2c3c(cc(C)c(OC)c3O)C[C@@H]([C@@H]1O)N2C)OCO4 [Batch P01],–,0.15,0.09,–,–,–,–,–,–,–,–,–,Impurities Total [3]: 0.3 % Area; Residual Solvents Acetonitrile [3]: 0.01 % w/w; Residual Solvents Dichloro-methane [3]: <LOQ; Residual Solvents Ethyl acetate [3]: <LOQ; Residual Solvents Hexane [3]: <LOQ; Residual Solvents Methanol [3]: 1.1 % w/w; Residual Solvents Pentane [3]: 0.2 % w/w; Residual Solvents Total [3]: 1.4 % w/w; Water Content [3]: 0.9 % w/w
COc1ccc2[nH]c3c(c2c1)CCN[C@]31CS[C@@H]2c3c(OC(C)=O)c(C)c4c(c3[C@H](COC1=O)N1[C@@H]2[C@H]2c3c(cc(C)c(OC)c3O)C[C@@H]([C@@H]1O)N2C)OCO4 [Batch R01],–,–,–,–,<LOQ,<LOQ,<LOQ,<LOQ,0.0 % w/w,0.3 % Area,1.9 % w/w,0.22 % area,Residual Solvents AcOEt [2]: <LOQ; Residual Solvents Hexane [2]: <LOQ; Impurity RRT aprox 1.10-1.11 (impurity profile): 0.09 % area
COc1ccc2[nH]c3c(c2c1)CCN[C@]31CS[C@@H]2c3c(OC(C)=O)c(C)c4c(c3[C@H](COC1=O)N1[C@@H]2[C@H]2c3c(cc(C)c(OC)c3O)C[C@@H]([C@@H]1O)N2C)OCO4 [Batch K04],–,0.20,0.11,0.08,–,–,–,–,–,–,–,–,–
COc1ccc2[nH]c3c(c2c1)CCN[C@]31CS[C@@H]2c3c(OC(C)=O)c(C)c4c(c3[C@H](COC1=O)N1[C@@H]2[C@H]2c3c(cc(C)c(OC)c3O)C[C@@H]([C@@H]1O)N2C)OCO4 [Batch P05],–,–,–,–,<LOQ,<LOQ,<LOQ,<LOQ,0.0 % w/w,0.3 % Area,2.1 % w/w,0.24 % area,Residual Solvents AcOEt [2]: <LOQ; Residual Solvents Hexane [2]: <LOQ; Impurity RRT aprox 1.10-1.11 (impurity profile): 0.07 % area
COc1ccc2[nH]c3c(c2c1)CCN[C@]31CS[C@@H]2c3c(OC(C)=O)c(C)c4c(c3[C@H](COC1=O)N1[C@@H]2[C@H]2c3c(cc(C)c(OC)c3O)C[C@@H]([C@@H]1O)N2C)OCO4 [Batch R03],–,–,–,–,<LOQ,<LOQ,<LOQ,<LOQ,0.0 % w/w,0.3 % Area,1.7 % w/w,0.22 % area,Impurity RRT aprox 0.66-0.69 (impurity profile): 0.05 % area
